Assay results published in ChEMBL document CHEMBL4130422, “Design, synthesis and biological evaluation of novel C-29 carbamate celastrol derivatives as potent and selective cytotoxic compounds” (Eur J Med Chem, 2017).
Each block holds one compound with its values, some of them ahead of it. Calls of active or inactive are those of the source. No cut-off for these calls is given here.

Tests used:
[1] = system: A549; assay: Antiproliferative activity against human A549 cells after 72 hrs by MTT assay; type: functional, cell-based; conditions: A549, 72 h
[2] = system: MIA PaCa-2; assay: Antiproliferative activity against human MIAPaCa2 cells after 72 hrs by MTT assay; type: functional, cell-based; conditions: MIA PaCa-2, 72 h
[3] = system: SK-OV-3; assay: Induction of apoptosis in human SKOV3 cells assessed as nuclear condensation at IC50 after 48 hrs by Hoechst 33342 staining-based fluorescence microscopic method; type: functional, cell-based
[4] = system: SK-OV-3; assay: Synergistic antiproliferative activity against human SKOV3 cells assessed as combination index at 0.125 uM after 72 hrs in presence of 8 uM carboplatin by MTT assay; type: functional
[5] = system: SK-OV-3; assay: Synergistic antiproliferative activity against human SKOV3 cells assessed as combination index at 0.5 uM after 72 hrs in presence of 32 uM carboplatin by MTT assay; type: functional
[6] = system: SK-OV-3; assay: Induction of apoptosis in human SKOV3 cells assessed as decrease in procaspase-3 expression levels at IC50 after 72 hrs by Western blot analysis; type: functional, cell-based
[7] = system: MDA-MB-231; assay: Antiproliferative activity against human MDA-MB-231cells after 72 hrs by MTT assay; type: functional, cell-based; conditions: MDA-MB-231, 72 h
[8] = system: SK-OV-3; assay: Synergistic antiproliferative activity against human SKOV3 cells assessed as combination index at 0.25 uM after 72 hrs in presence of 16 uM carboplatin by MTT assay; type: functional
[9] = system: SK-OV-3; assay: Anticlonogenic activity against human SKOV3 cells assessed as reduction in colony formation efficiency treated for 24 hrs followed by incubation in drug free medium for 12 days by crystal violet staining-based assay; type: functional, cell-based
[10] = system: SK-OV-3; assay: Induction of apoptosis in human SKOV3 cells assessed as early apoptotic cells at IC50 after 72 by Annexin V-FITC/propidium iodide double-staining-based FACS analysis (reference value: 4.5%); type: functional
[11] = system: SK-OV-3; assay: Induction of apoptosis in human SKOV3 cells assessed as decrease in procaspase-8 expression levels at IC50 after 72 hrs by Western blot analysis; type: functional, cell-based
[12] = system: SK-OV-3; assay: Induction of apoptosis in human SKOV3 cells assessed as increase in cleaved caspase-8 expression levels at IC50 after 72 hrs by Western blot analysis; type: functional, cell-based
[13] = system: SK-OV-3; assay: Induction of apoptosis in human SKOV3 cells assessed as decrease in full-length PARP expression levels at IC50 after 72 hrs by Western blot analysis; type: functional, cell-based
[14] = system: HT-29; assay: Antiproliferative activity against human HT-29 cells after 72 hrs by MTT assay; type: functional, cell-based; conditions: HT-29, 72 h
[15] = system: SK-OV-3; assay: Synergistic antiproliferative activity against human SKOV3 cells assessed as combination index at 1 uM after 72 hrs in presence of 64 uM carboplatin by MTT assay; type: functional
[16] = system: SK-OV-3; assay: Induction of apoptosis in human SKOV3 cells at IC50 by Annexin V-FITC/propidium iodide double-staining-based FACS analysis; type: functional, cell-based; conditions: TDE = time-dependent effect
[17] = system: SK-OV-3; assay: Induction of apoptosis in human SKOV3 cells assessed as increase in cleaved caspase-9 expression levels at IC50 after 72 hrs by Western blot analysis; type: functional, cell-based
[18] = system: BJ; assay: Antiproliferative activity against human BJ cells after 72 hrs by MTT assay; type: cell-based
[19] = system: SK-OV-3; assay: Induction of apoptosis in human SKOV3 cells assessed as decrease in procaspase-9 expression levels at IC50 after 72 hrs by Western blot analysis; type: functional, cell-based
[20] = system: SK-OV-3; assay: Induction of apoptosis in human SKOV3 cells assessed as decrease in Bcl-2 expression levels at IC50 after 72 hrs by Western blot analysis; type: functional, cell-based
[21] = system: SK-OV-3; assay: Induction of apoptosis in human SKOV3 cells assessed as formation of apoptotic bodies at IC50 after 48 hrs by Hoechst 33342 staining-based fluorescence microscopic method; type: functional, cell-based
[22] = system: SK-OV-3; assay: Induction of apoptosis in human SKOV3 cells assessed as nuclear fragmentation at IC50 after 48 hrs by Hoechst 33342 staining-based fluorescence microscopic method; type: functional, cell-based
[23] = system: MCF7; assay: Antiproliferative activity against human MCF7 cells after 72 hrs by MTT assay; type: functional, cell-based; conditions: MCF7, 72 h
[24] = system: SK-OV-3; assay: Induction of apoptosis in human SKOV3 cells assessed as increase in cleaved PARP expression levels at IC50 after 72 hrs by Western blot analysis; type: functional, cell-based
[25] = system: SK-OV-3; assay: Induction of apoptosis in human SKOV3 cells assessed as cell shrinkage at IC50 after 48 hrs by Hoechst 33342 staining-based fluorescence microscopic method; type: functional
[26] = system: SK-OV-3; assay: Induction of apoptosis in human SKOV3 cells assessed as increase in cleaved caspase-3 expression levels at IC50 after 72 hrs by Western blot analysis; type: functional, cell-based
[27] = system: SK-OV-3; assay: Induction of apoptosis in human SKOV3 cells assessed as increase in Bax expression levels at IC50 after 72 hrs by Western blot analysis; type: functional, cell-based
[28] = system: SK-OV-3; assay: Synergistic antiproliferative activity against human SKOV3 cells assessed as combination index at 2 uM after 72 hrs in presence of 128 uM carboplatin by MTT assay; type: functional
[29] = system: SK-OV-3; assay: Induction of apoptosis in human SKOV3 cells assessed as increase in Bid expression levels at IC50 after 72 hrs by Western blot analysis; type: functional, cell-based
[30] = system: SK-OV-3; assay: Antiproliferative activity against human SKOV3 cells after 72 hrs by MTT assay; type: functional, cell-based; conditions: SK-OV-3, 72 h
[31] = system: SK-OV-3; assay: Cell cycle arrest in human SKOV3 cells at IC50 at 24 to 72 hrs by propidium iodide staining-based FACS analysis; type: functional

Compound: CC(=O)Oc1cc2c(c(C)c1OC(C)=O)C(=O)C=C1[C@@]2(C)CC[C@@]2(C)[C@@H]3C[C@](C)(C(N)=O)CC[C@]3(C)CC[C@]12C
- IC50 [1]: 1270 nM
- IC50 [2]: 360 nM

Compound: CCOC(=O)N[C@]1(C)CC[C@]2(C)CC[C@]3(C)C4=CC=C5C(=CC(=O)C(O)=C5C)[C@]4(C)CC[C@@]3(C)[C@@H]2C1
- IC50 [1]: 1930 nM
- IC50 [2]: 780 nM

Compound: CC(=O)Oc1cc2c(c(C)c1OC(C)=O)C(=O)C=C1C2(C)CC[C@@]2(C)[C@@H]3C[C@](C)(N=C=O)CC[C@]3(C)CC[C@]12C (single isomer, unassigned)
- IC50 [1]: > 10000 nM
- IC50 [2]: > 10000 nM

Compound: CCOC(=O)N[C@]1(C)CC[C@]2(C)CC[C@]3(C)C4=CC(=O)c5c(cc(O)c(O)c5C)[C@]4(C)CC[C@@]3(C)[C@@H]2C1
- IC50 [1]: > 10000 nM
- IC50 [2]: > 10000 nM

Compound: CC(=O)Oc1cc2c(c(C)c1OC(C)=O)C(=O)C=C1[C@@]2(C)CC[C@@]2(C)[C@@H]3C[C@](C)(CO)CC[C@]3(C)CC[C@]12C
- IC50 [1]: 1870 nM
- IC50 [2]: 480 nM

Compound: COC(=O)N[C@]1(C)CC[C@]2(C)CC[C@]3(C)C4=CC=C5C(=CC(=O)C(O)=C5C)[C@]4(C)CC[C@@]3(C)[C@@H]2C1
- IC50 [1]: 1740 nM
- IC50 [2]: 580 nM

Compound: CC1=C(O)C(=O)C=C2C1=CC=C1[C@@]2(C)CC[C@@]2(C)[C@@H]3C[C@](C)(C(=O)O)CC[C@]3(C)CC[C@]12C [CELASTROL]
- IC50 [1]: 1560 nM
- IC50 [7]: 1320 nM
- IC50 [2]: 460 nM
- IC50 [14]: 1280 nM
- IC50 [18]: 2740 nM
- IC50 [23]: 1350 nM
- IC50 [30]: 1160 nM

Compound: CC1=C(O)C(=O)C=C2C1=CC=C1[C@@]2(C)CC[C@@]2(C)[C@@H]3C[C@](C)(NC(=O)OCC(C)(C)CO)CC[C@]3(C)CC[C@]12C
- IC50 [1]: 1580 nM
- IC50 [2]: 1000 nM

Compound: CC(=O)Oc1cc2c(c(C)c1OC(C)=O)C(=O)C=C1C2(C)CC[C@@]2(C)[C@@H]3C[C@](C)(C(=O)O)CC[C@]3(C)CC[C@]12C (single isomer, unassigned)
- IC50 [1]: > 10000 nM
- IC50 [2]: > 10000 nM

Compound: Cc1c(O)c(O)cc2c1CC=C1[C@@]2(C)CC[C@@]2(C)[C@@H]3C[C@](C)(C(=O)O)CC[C@]3(C)CC[C@]12C [DIHYDROCELASTROL]
- IC50 [1]: 3150 nM
- IC50 [2]: 720 nM

Compound: CCOC(=O)N[C@]1(C)CC[C@]2(C)CC[C@]3(C)C4=CC(=O)c5c(cc(OC)c(OC)c5C)[C@]4(C)CC[C@@]3(C)[C@@H]2C1
- IC50 [1]: > 10000 nM
- IC50 [2]: > 10000 nM

Compound: CC(=O)Oc1cc2c(c(C)c1OC(C)=O)CC=C1[C@@]2(C)CC[C@@]2(C)[C@@H]3C[C@](C)(N=C=O)CC[C@]3(C)CC[C@]12C
- IC50 [1]: 2890 nM
- IC50 [2]: 1410 nM

Compound: COC(=O)N[C@]1(C)CC[C@]2(C)CC[C@]3(C)C4=CC(=O)c5c(cc(O)c(O)c5C)[C@]4(C)CC[C@@]3(C)[C@@H]2C1
- IC50 [1]: 6530 nM
- IC50 [2]: 6500 nM
- IC50 [18]: > 30000 nM
- IC50 [30]: 7980 nM

Continued, in another order:

- IC50 [1]: 880 nM
- IC50 [7]: 1350 nM
- IC50 [2]: 330 nM
- IC50 [14]: 1540 nM
- IC50 [23]: 1680 nM
- IC50 [30]: 540 nM
Compound: COC(=O)N[C@]1(C)CC[C@]2(C)CC[C@]3(C)C4=CC(=O)c5c(cc(OC(C)=O)c(OC(C)=O)c5C)[C@]4(C)CC[C@@]3(C)[C@@H]2C1
- Activity [3]: Active
- CI [4]: 1.112
- CI [5]: 0.6273
- Activity [6]: Active
- CI [8]: 0.9285
- Activity [9]: Dose-dependent effect
- Activity [10]: 29.9%
- Activity [11]: Active
- Activity [12]: Active
- Activity [13]: Active
- CI [15]: 0.7863
- Activity [16]: Tde
- Activity [17]: inactive
- IC50 [18]: 3680 nM
- Activity [19]: inactive
- Activity [20]: inactive
- Activity [21]: Active
- Activity [22]: Active
- Activity [24]: Active
- Activity [25]: Active
- Activity [26]: Active
- Activity [27]: inactive
- CI [28]: 1.076
- Activity [29]: inactive
- Activity [31]: inactive

- IC50 [1]: 2230 nM
- IC50 [2]: 800 nM
Compound: CC1=C(O)C(=O)C=C2C1=CC=C1[C@@]2(C)CC[C@@]2(C)[C@@H]3C[C@](C)(NC(=O)OCC(C)C)CC[C@]3(C)CC[C@]12C

- IC50 [1]: 1050 nM
- IC50 [7]: 520 nM
- IC50 [2]: 320 nM
- IC50 [14]: 1020 nM
- IC50 [23]: 590 nM
- IC50 [30]: 450 nM
Compound: CCCCCOC(=O)N[C@]1(C)CC[C@]2(C)CC[C@]3(C)C4=CC=C5C(=CC(=O)C(O)=C5C)[C@]4(C)CC[C@@]3(C)[C@@H]2C1
- IC50 [18]: 880 nM

- IC50 [1]: 2470 nM
- IC50 [2]: 530 nM
Compound: CC1=C(O)C(=O)C=C2C1=CC=C1[C@@]2(C)CC[C@@]2(C)[C@@H]3C[C@](C)(N=C=O)CC[C@]3(C)CC[C@]12C

- IC50 [1]: 2770 nM
- IC50 [2]: 380 nM
Compound: CC(=O)Oc1cc2c(c(C)c1OC(C)=O)C(=O)C=C1[C@@]2(C)CC[C@@]2(C)[C@@H]3C[C@](C)(C=O)CC[C@]3(C)CC[C@]12C

- IC50 [1]: > 10000 nM
- IC50 [2]: > 10000 nM
Compound: COC(=O)N[C@]1(C)CC[C@]2(C)CC[C@]3(C)C4=CC(=O)c5c(cc(OC)c(O)c5C)[C@]4(C)CC[C@@]3(C)[C@@H]2C1

- IC50 [1]: 1000 nM
- IC50 [2]: 400 nM
Compound: CCCOC(=O)N[C@]1(C)CC[C@]2(C)CC[C@]3(C)C4=CC=C5C(=CC(=O)C(O)=C5C)[C@]4(C)CC[C@@]3(C)[C@@H]2C1

- IC50 [1]: 2210 nM
- IC50 [2]: 560 nM
Compound: CC(=O)Oc1cc2c(c(C)c1OC(C)=O)CC=C1[C@@]2(C)CC[C@@]2(C)[C@@H]3C[C@](C)(C(=O)O)CC[C@]3(C)CC[C@]12C
